target: Peroxisomal trans-2-enoyl-CoA reductase (Homo sapiens) (UniProt Q9BY49); assay: PECR reductase ligand binding by thermal shift, biophysical, human, DSF, SYPRO orange, NADP+ (AID 392); conditions: recombinant PECR, at 10 µM, protein 2 µM, buffer 10 mM HEPES, pH 7.5, NaCl 150 mM, NADP 200 µM, stronger effect = higher value
Sequence (Q9BY49 whole entry, looked up): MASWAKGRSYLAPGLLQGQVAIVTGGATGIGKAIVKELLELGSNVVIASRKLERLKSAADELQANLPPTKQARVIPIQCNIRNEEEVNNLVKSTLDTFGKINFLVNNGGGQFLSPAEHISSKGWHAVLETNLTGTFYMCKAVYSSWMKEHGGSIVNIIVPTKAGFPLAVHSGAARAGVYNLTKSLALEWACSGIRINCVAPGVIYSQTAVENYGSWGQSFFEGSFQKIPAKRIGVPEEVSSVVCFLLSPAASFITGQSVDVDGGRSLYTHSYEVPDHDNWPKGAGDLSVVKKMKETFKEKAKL

Q: `O=C(C1CCC(CNS(=O)(=O)c2ccc(Br)s2)CC1)N1CCN(C(c2ccccc2)c2ccc(Cl)cc2)CC1` (stereo not drawn) was tested. Which Tm shift did it give?
A: The Tm shift was 2.3 Celsius.

Q: With `O=C(C1CCN(S(=O)(=O)c2ccc(Br)s2)CC1)N1CCN(C(c2ccccc2)c2ccc(Cl)cc2)CC1` (stereo not drawn) as the compound, how does the Tm shift read?
A: Its Tm shift is 2.1 Celsius.

Q: How did the Tm shift turn out when `CCc1nnc(NS(=O)(=O)c2ccc(NC(=O)/C=C/c3ccc(F)cc3)cc2)s1` was run?
A: The Tm shift was 2.4 Celsius.

Q: With `NC(=O)c1ccc[n+](C2OC(COP(=O)(O)OP(=O)(O)OCC3OC(n4cnc5c(N)ncnc54)C(O)C3O)C(O)C2O)c1` (stereo not drawn) as the compound, how does the Tm shift read?
A: Its Tm shift is 2.2 Celsius.

Q: `O=c1oc2cc(O)ccc2c2oc3cc(O)ccc3c12` was tested. Which Tm shift did it give?
A: The Tm shift was 2.2 Celsius.

Q: With `NC(=O)c1ccc[n+](C2OC(COP(=O)(O)OP(=O)(O)OCC3OC(n4cnc5c(N)ncnc54)C(OP(=O)(O)O)C3O)C(O)C2O)c1` (stereo not drawn) as the compound, how does the Tm shift read?
A: Its Tm shift is 2.2 Celsius.

same assay, conditions: recombinant PECR, at 10 µM, protein 2 µM, buffer 10 mM HEPES, pH 7.5, NaCl 150 mM, NADP+ 200 µM, stronger effect = higher value

Q: How did the Tm shift turn out when `O=C(O[C@@H]1Cc2c(O)cc(O)cc2O[C@H]1c1ccc(O)c(O)c1)c1cc(O)c(O)c(O)c1` was run?
A: Its Tm shift is 12.6 Celsius.

same assay, conditions: recombinant PECR, at 100 µM, protein 2 µM, buffer 10 mM HEPES, pH 7.5, NaCl 150 mM, NADP+ 200 µM, stronger effect = higher value

Q: For `C[C@@]12CCC3=C(CCc4cc(O)ccc43)[C@H]1CCC2=C(F)F`, which Tm shift is on record?
A: The Tm shift was 3.7 Celsius.

Q: How did the Tm shift turn out when `C=CC1=C(C)/C(=C/c2[nH]c(Cc3[nH]c(/C=C4\NC(=O)C(C)=C4C=C)c(C)c3CCC(=O)O)c(CCC(=O)O)c2C)NC1=O` was run?
A: Its Tm shift is 10 Celsius.

Q: `O=C1C2(Cl)C3(Cl)C4(Cl)C(Cl)(Cl)C5(Cl)C3(Cl)C1(Cl)C5(Cl)C24Cl` (stereo not drawn) was tested. Which Tm shift did it give?
A: The Tm shift was 3.1 Celsius.

Q: Which Tm shift does the source give for `CCCCCCCCCC(=O)SCCNC(=O)CCNC(=O)C(O)C(C)(C)COP(=O)(O)OP(=O)(O)OCC1OC(n2cnc3c(N)ncnc32)C(O)C1OP(=O)(O)O` (stereo not drawn) here?
A: Its Tm shift is 4.1 Celsius.

Q: Which Tm shift does the source give for `O=C1Nc2ccccc2C1=O` here?
A: The Tm shift was 6.4 Celsius.

Q: For `C[C@@]12CCC3=C(CCc4cc(O)ccc43)[C@]13C[C@@H]3CC2=C(F)F`, which Tm shift is on record?
A: Its Tm shift is 23.8 Celsius.

Source: PubChem BioAssay AID392 (SGCOxCompounds, 2006)
